Measurements: patent publication US20120029187A1, “HALOALKYLSULFONANILIDE DERIVATIVE” (Nissan Chemical Industries, Ltd., priority 2009, published 2012)

Columns and labels:
Assay type in all cases: in vivo
barnyardgrass [1] = test: Test Example 1: herbicidal effects in preemergence treatment under submerged conditions; conditions: dose 2.52 g/a
Outline: (§1)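 Flooded-paddy preemergence assay; EC diluted with water, surface-applied at weed seeding; doses g/a; rice transplanted at 2.5 leaves; 0–5 mortality score after 3 weeks.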

bulrush [2] = test: as above; conditions: dose 2.52 g/a
Outline: as §1

ducksalad [3] = test: as above; conditions: dose 2.52 g/a
Outline: as §1

transplanted rice = test: Test Example 1: preemergence treatment under submerged conditions, effect on crop; conditions: dose 2.52 g/a
Outline: as §1

barnyardgrass [4] = test: Test Example 2: herbicidal effects during the vegetation period under submerged conditions; conditions: treatment during the vegetation period under submerged conditions; dose 2.52 g/a
Outline: (§2)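 Barnyardgrass, bulrush and ducksalad were co-sown in alluvial soil flooded to 4 cm and grown in a greenhouse at 25 to 30° C. At the 1- or 2-leaf stage, water-diluted emulsifiable concentrates went onto the water surface at set doses (g/a). Herbicidal effect was scored three weeks later on a graded scale.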

bulrush [5] = test: as above; conditions: treatment during the vegetation period under submerged conditions; dose 2.52 g/a
Outline: as §2

ducksalad [6] = test: as above; conditions: treatment during the vegetation period under submerged conditions; dose 2.52 g/a
Outline: as §2

Italian ryegrass [7] = test: Test Example 3: herbicidal effects in soil treatment; conditions: dose 3.2 g/a
Outline: (§3)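 Seeds were sown in sterilized diluvial soil and covered with about 1.5 cm of soil. Compounds, formulated as emulsifiable concentrates and diluted with water, were sprayed evenly over the soil surface at set doses in g/a. Herbicidal effect was scored on a rating scale three weeks later.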

barnyardgrass [8] = test: as above; conditions: dose 3.2 g/a
Outline: as §3

beadstraw [9] = test: as above; conditions: dose 3.2 g/a
Outline: as §3

common chickweed [10] = test: as above; conditions: dose 3.2 g/a
Outline: as §3

common lambsquater [11] = test: as above; conditions: dose 3.2 g/a
Outline: as §3

common ragweed [12] = test: as above; conditions: dose 3.2 g/a
Outline: as §3

giant foxtail [13] = test: as above; conditions: dose 3.2 g/a
Outline: as §3

large crabgrass [14] = test: as above; conditions: dose 3.2 g/a
Outline: as §3

posumbu knotweed [15] = test: as above; conditions: dose 3.2 g/a
Outline: as §3

redroot pigweed [16] = test: as above; conditions: dose 3.2 g/a
Outline: as §3

velvetleaf [17] = test: as above; conditions: dose 3.2 g/a
Outline: as §3

water foxtail [18] = test: as above; conditions: dose 3.2 g/a
Outline: as §3

Italian ryegrass [19] = test: Test Example 4: herbicidal effect in foliage treatment; conditions: dose 3.2 g/a, three weeks after application
Outline: (§4)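 Post-emergence foliar spray of water-diluted emulsifiable concentrate at predetermined doses (g per are), applied to plants 14 days after sowing in sterile diluvial soil (greenhouse, 25 to 30° C). Visual scale rating of effect taken 3 weeks later.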

barnyardgrass [20] = test: as above; conditions: dose 3.2 g/a, three weeks after application
Outline: as §4

beadstraw [21] = test: as above; conditions: dose 3.2 g/a, three weeks after application
Outline: as §4

common chickweed [22] = test: as above; conditions: dose 3.2 g/a, three weeks after application
Outline: as §4

common lambsquater [23] = test: as above; conditions: dose 3.2 g/a, three weeks after application
Outline: as §4

common ragweed [24] = test: as above; conditions: dose 3.2 g/a, three weeks after application
Outline: as §4

giant foxtail [25] = test: as above; conditions: dose 3.2 g/a, three weeks after application
Outline: as §4

large crabgrass [26] = test: as above; conditions: dose 3.2 g/a, three weeks after application
Outline: as §4

posumbu knotweed [27] = test: as above; conditions: dose 3.2 g/a, three weeks after application
Outline: as §4

redroot pigweed [28] = test: as above; conditions: dose 3.2 g/a, three weeks after application
Outline: as §4

velvetleaf [29] = test: as above; conditions: dose 3.2 g/a, three weeks after application
Outline: as §4

water foxtail [30] = test: as above; conditions: dose 3.2 g/a, three weeks after application
Outline: as §4

## CCC(=O)N(c1ccccc1CN1COC2(CCC2)CC1=O)S(=O)(=O)C(F)(F)F [II-62]
Barnyardgrass [1]
  A: barnyardgrass, herbicidal effect (evaluation scale 0-5): 5 (mortality of 90% or above (nearly complete death))
Bulrush [2]
  B: bulrush, herbicidal effect (evaluation scale 0-5): 5 (mortality of 90% or above (nearly complete death))
Ducksalad [3]
  C: ducksalad, herbicidal effect (evaluation scale 0-5): 5 (mortality of 90% or above (nearly complete death))
Transplanted rice
  a: transplanted rice, effect on crop (evaluation scale 0-5): 0 (mortality of less than 5% (almost ineffective))
Barnyardgrass [4]
  A: barnyardgrass, herbicidal effect (evaluation scale 0-5): 5 (mortality of 90% or above (nearly complete death))
Bulrush [5]
  B: bulrush, herbicidal effect (evaluation scale 0-5): 5 (mortality of 90% or above (nearly complete death))
Ducksalad [6]
  C: ducksalad, herbicidal effect (evaluation scale 0-5): 5 (mortality of 90% or above (nearly complete death))
Italian ryegrass [7]
  H: Italian ryegrass, herbicidal effect (evaluation scale 0-5): 5 (mortality of 90% or above (nearly complete death))
Barnyardgrass [8]
  A: barnyardgrass, herbicidal effect (evaluation scale 0-5): 5 (mortality of 90% or above (nearly complete death))
Beadstraw [9]
  O: beadstraw, herbicidal effect (evaluation scale 0-5): 4 (mortality of at least 70% and less than 90%)
Common chickweed [10]
  N: common chickweed, herbicidal effect (evaluation scale 0-5): 5 (mortality of 90% or above (nearly complete death))
Common lambsquater [11]
  L: common lambsquater, herbicidal effect (evaluation scale 0-5): 4 (mortality of at least 70% and less than 90%)
Common ragweed [12]
  J: common ragweed, herbicidal effect (evaluation scale 0-5): 4 (mortality of at least 70% and less than 90%)
Giant foxtail [13]
  E: giant foxtail, herbicidal effect (evaluation scale 0-5): 5 (mortality of 90% or above (nearly complete death))
Large crabgrass [14]
  D: large crabgrass, herbicidal effect (evaluation scale 0-5): 5 (mortality of 90% or above (nearly complete death))
Posumbu knotweed [15]
  M: posumbu knotweed, herbicidal effect (evaluation scale 0-5): 5 (mortality of 90% or above (nearly complete death))
Redroot pigweed [16]
  K: redroot pigweed, herbicidal effect (evaluation scale 0-5): 4 (mortality of at least 70% and less than 90%)
Velvetleaf [17]
  I: velvetleaf, herbicidal effect (evaluation scale 0-5): 5 (mortality of 90% or above (nearly complete death))
Water foxtail [18]
  G: water foxtail, herbicidal effect (evaluation scale 0-5): 5 (mortality of 90% or above (nearly complete death))
Italian ryegrass [19]
  H: Italian ryegrass, herbicidal effect: 4 (mortality of at least 70% and less than 90%)
Barnyardgrass [20]
  A: barnyardgrass, herbicidal effect: 5 (mortality of 90% or above (nearly complete death))
Beadstraw [21]
  O: beadstraw, herbicidal effect: 4 (mortality of at least 70% and less than 90%)
Common chickweed [22]
  N: common chickweed, herbicidal effect: 4 (mortality of at least 70% and less than 90%)
Common lambsquater [23]
  L: common lambsquater, herbicidal effect: 4 (mortality of at least 70% and less than 90%)
Common ragweed [24]
  J: common ragweed, herbicidal effect: 4 (mortality of at least 70% and less than 90%)
Giant foxtail [25]
  E: giant foxtail, herbicidal effect: 5 (mortality of 90% or above (nearly complete death))
Large crabgrass [26]
  D: large crabgrass, herbicidal effect: 5 (mortality of 90% or above (nearly complete death))
Posumbu knotweed [27]
  M: posumbu knotweed, herbicidal effect: 4 (mortality of at least 70% and less than 90%)
Redroot pigweed [28]
  K: redroot pigweed, herbicidal effect: 3 (mortality of at least 40% and less than 70%)
Velvetleaf [29]
  I: velvetleaf, herbicidal effect: 5 (mortality of 90% or above (nearly complete death))
Water foxtail [30]
  G: water foxtail, herbicidal effect: 5 (mortality of 90% or above (nearly complete death))

## CCOC(=O)N(c1ccccc1CN1COC2(CCC2)CC1=O)S(=O)(=O)C(F)(F)F [II-63]
Barnyardgrass [1]
  A: barnyardgrass, herbicidal effect (evaluation scale 0-5): 5 (mortality of 90% or above (nearly complete death))
Bulrush [2]
  B: bulrush, herbicidal effect (evaluation scale 0-5): 5 (mortality of 90% or above (nearly complete death))
Ducksalad [3]
  C: ducksalad, herbicidal effect (evaluation scale 0-5): 5 (mortality of 90% or above (nearly complete death))
Transplanted rice
  a: transplanted rice, effect on crop (evaluation scale 0-5): 1 (mortality of at least 5% and less than 20%)
Barnyardgrass [4]
  A: barnyardgrass, herbicidal effect (evaluation scale 0-5): 5 (mortality of 90% or above (nearly complete death))
Bulrush [5]
  B: bulrush, herbicidal effect (evaluation scale 0-5): 5 (mortality of 90% or above (nearly complete death))
Ducksalad [6]
  C: ducksalad, herbicidal effect (evaluation scale 0-5): 5 (mortality of 90% or above (nearly complete death))
Italian ryegrass [7]
  H: Italian ryegrass, herbicidal effect (evaluation scale 0-5): 4 (mortality of at least 70% and less than 90%)
Barnyardgrass [8]
  A: barnyardgrass, herbicidal effect (evaluation scale 0-5): 5 (mortality of 90% or above (nearly complete death))
Beadstraw [9]
  O: beadstraw, herbicidal effect (evaluation scale 0-5): 4 (mortality of at least 70% and less than 90%)
Common chickweed [10]
  N: common chickweed, herbicidal effect (evaluation scale 0-5): 5 (mortality of 90% or above (nearly complete death))
Common lambsquater [11]
  L: common lambsquater, herbicidal effect (evaluation scale 0-5): 3 (mortality of at least 40% and less than 70%)
Common ragweed [12]
  J: common ragweed, herbicidal effect (evaluation scale 0-5): 4 (mortality of at least 70% and less than 90%)
Giant foxtail [13]
  E: giant foxtail, herbicidal effect (evaluation scale 0-5): 5 (mortality of 90% or above (nearly complete death))
Large crabgrass [14]
  D: large crabgrass, herbicidal effect (evaluation scale 0-5): 5 (mortality of 90% or above (nearly complete death))
Posumbu knotweed [15]
  M: posumbu knotweed, herbicidal effect (evaluation scale 0-5): 4 (mortality of at least 70% and less than 90%)
Redroot pigweed [16]
  K: redroot pigweed, herbicidal effect (evaluation scale 0-5): 4 (mortality of at least 70% and less than 90%)
Velvetleaf [17]
  I: velvetleaf, herbicidal effect (evaluation scale 0-5): 5 (mortality of 90% or above (nearly complete death))
Water foxtail [18]
  G: water foxtail, herbicidal effect (evaluation scale 0-5): 5 (mortality of 90% or above (nearly complete death))
Italian ryegrass [19]
  H: Italian ryegrass, herbicidal effect: 4 (mortality of at least 70% and less than 90%)
Barnyardgrass [20]
  A: barnyardgrass, herbicidal effect: 5 (mortality of 90% or above (nearly complete death))
Beadstraw [21]
  O: beadstraw, herbicidal effect: 3 (mortality of at least 40% and less than 70%)
Common chickweed [22]
  N: common chickweed, herbicidal effect: 4 (mortality of at least 70% and less than 90%)
Common lambsquater [23]
  L: common lambsquater, herbicidal effect: 3 (mortality of at least 40% and less than 70%)
Common ragweed [24]
  J: common ragweed, herbicidal effect: 4 (mortality of at least 70% and less than 90%)
Giant foxtail [25]
  E: giant foxtail, herbicidal effect: 4 (mortality of at least 70% and less than 90%)
Large crabgrass [26]
  D: large crabgrass, herbicidal effect: 4 (mortality of at least 70% and less than 90%)
Posumbu knotweed [27]
  M: posumbu knotweed, herbicidal effect: 4 (mortality of at least 70% and less than 90%)
Redroot pigweed [28]
  K: redroot pigweed, herbicidal effect: 2 (mortality of at least 20% and less than 40%)
Velvetleaf [29]
  I: velvetleaf, herbicidal effect: 5 (mortality of 90% or above (nearly complete death))
Water foxtail [30]
  G: water foxtail, herbicidal effect: 5 (mortality of 90% or above (nearly complete death))
